The values below come from US8748426B2, “Inhibitors of diacylglycerol acyl transferase” (Piramal Enterprises Limited, priority 2009, dated 2014).

What is called inhibition is the percentage by which the read-out fell short of the control.

One test addresses T1, hDGAT1 (Homo sapiens, UniProt O75907).
T1 sequence (O75907 1-488): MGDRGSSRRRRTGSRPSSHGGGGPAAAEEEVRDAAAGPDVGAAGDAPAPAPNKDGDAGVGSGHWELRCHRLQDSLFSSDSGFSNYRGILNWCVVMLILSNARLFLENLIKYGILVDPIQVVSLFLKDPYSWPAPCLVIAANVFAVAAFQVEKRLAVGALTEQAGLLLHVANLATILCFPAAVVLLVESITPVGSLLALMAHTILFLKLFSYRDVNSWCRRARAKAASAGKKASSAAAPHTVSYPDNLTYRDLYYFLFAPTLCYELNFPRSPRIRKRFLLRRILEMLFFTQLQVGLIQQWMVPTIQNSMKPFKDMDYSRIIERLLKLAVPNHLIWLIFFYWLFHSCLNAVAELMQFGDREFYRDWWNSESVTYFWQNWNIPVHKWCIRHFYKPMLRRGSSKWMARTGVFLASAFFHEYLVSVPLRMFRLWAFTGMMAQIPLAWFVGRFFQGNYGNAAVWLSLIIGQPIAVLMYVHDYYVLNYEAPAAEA
The test is described as follows: In-vitro DGAT1 assay (14C oleoyl CoA, hDGAT1 microsomes from Sf9 cells). As to conditions: at 1 μM.
As to `CC(C)[C@@H](C(=O)O)N1Cc2cc(-c3ccc(NC(=S)Nc4ccc(C#N)cc4)cc3)ccc2C1=O` [Example 269, (S)-2-(5-(4-(3-(4-Cyanophenyl)thioureido)phenyl)-1-oxoisoindolin-2-1)-3-methyl butanoic acid], the “% Inhibition of hDGAT1” value was “+ (10-50% Inhibition)”.

Still in this test, the particulars now being: read-out: % Inhibition of hDGAT1.
As for `CC(C)[C@@H](C(=O)O)N1Cc2cc(-c3ccc(NC(=S)Nc4ccccc4C(F)(F)F)cc3)ccc2C1=O` [Example 271, (S)-3-Methyl-2-(1-oxo-5-(4-(3-(2-(trifluoromethyl)phenyl)thioureido)phenyl)isoindolin-2-yl)butanoic acid], the inhibition at 1 µM lay within 10 to 50%.
Same read-out and setting: next, `Cc1ccc(NC(=S)Nc2ccc(-c3ccc4c(c3)CN([C@H](C(=O)O)C(C)C)C4=O)cc2)cc1` [Example 275, (S)-3-Methyl-2-(1-oxo-5-(4-(3-p-tolylthioureido)phenyl)isoindolin-2-yl)butanoic acid]: 10 to 50%; `COc1ccccc1NC(=S)Nc1ccc(-c2ccc3c(c2)CN([C@H](C(=O)O)C(C)C)C3=O)cc1` [Example 281, (S)-2-(5-(4-(3-(2-Methoxyphenyl)thioureido)phenyl)-1-oxoisoindolin-2-yl)-3-methylbutanoic acid]: above 50%; `CC(C)[C@@H](C(=O)O)N1Cc2cc(-c3ccc(NC(=S)Nc4cccc(C(F)(F)F)c4)cc3)ccc2C1=O` [Example 283, (S)-3-Methyl-2-(1-oxo-5-(4-(3-(3-(trifluoromethyl)phenyl)thioureido)phenyl)isoindolin-2-yl)butanoic acid]: above 50%.
The same measure, in the same setting: next, `CC(C)[C@@H](C(=O)O)N1Cc2cc(-c3ccc(NS(=O)(=O)c4ccc(F)c(F)c4)cc3)ccc2C1=O` [Example 289, (S)-2-(5-(4-(3,4-Difluorophenylsulfonamido)phenyl)-1-oxoisoindolin-2-yl)-3-methylbutanoic acid]: 10 to 50%; `CC(C)[C@@H](C(=O)O)N1Cc2cc(-c3ccc(NS(=O)(=O)c4ccc(F)cc4F)cc3)ccc2C1=O` [Example 291, (S)-2-(5-(4-(2,4-Difluorophenylsulfonamido)phenyl)-1-oxoisoindolin-2-yl)-3-methylbutanoic acid]: 10 to 50%; `COc1ccc(S(=O)(=O)Nc2ccc(-c3ccc4c(c3)CN([C@H](C(=O)O)C(C)C)C4=O)cc2)cc1OC` [Example 293, (S)-2-(5-(4-(3,4-Dimethoxyphenylsulfonamido)phenyl)-1-oxoisoindolin-2-yl)-3-methylbutanoic acid]: 10 to 50%.
The same measure, in the same setting: for `CC(C)[C@@H](C(=O)O)N1Cc2cc(-c3ccc(NS(=O)(=O)c4cccc(Cl)c4)cc3)ccc2C1=O` [Example 295, (S)-2-(5-(4-(3-Chlorophenylsulfonamido)phenyl)-1-oxoisoindolin-2-yl)-3-methyl butanoic acid] the value was 10 to 50%; for `COc1ccc(S(=O)(=O)Nc2ccc(-c3ccc4c(c3)CN([C@H](C(=O)O)C(C)C)C4=O)cc2)cc1` [Example 297, (S)-2-(5-(4-(4-Methoxyphenylsulfonamido)phenyl)-1-oxoisoindolin-2-yl)-3-methylbutanoic acid], 10 to 50%; for `CC(C)[C@@H](C(=O)O)N1Cc2cc(-c3ccc(NS(=O)(=O)c4ccc(C(F)(F)F)cc4)cc3)ccc2C1=O` [Example 299, (S)-3-Methyl-2-(1-oxo-5-(4-(4-(trifluoromethyl)phenylsulfonamido)phenyl)isoindolin-2-yl)butanoic acid], 10 to 50%.
Turning to `CC(C)[C@@H](C(=O)O)N1Cc2cc(-c3ccc(NS(=O)(=O)Cc4ccccc4)cc3)ccc2C1=O` [Example 301, (S)-3-Methyl-2-(1-oxo-5-(4-(phenylmethylsulfonamido)phenyl)isoindolin-2-yl)butanoic acid], the inhibition at 1 µM is 10 to 50%.
Still for that read-out and setting: next, `CC(C)[C@@H](C(=O)O)N1Cc2cc(-c3ccc(NS(=O)(=O)C4CCCCC4)cc3)ccc2C1=O` [Example 303, (S)-2-(5-(4-(Cyclohexanesulfonamido)phenyl)-1-oxoisoindolin-2-yl)-3-methylbutanoic acid]: 10 to 50%.
Same read-out and setting: for `CC(C)[C@@H](C(=O)O)N1Cc2cc(-c3ccc(NC(=O)c4ccccc4)cc3)ccc2C1=O` [Example 305, (S)-2-(5-(4-Benzamidophenyl)-1-oxoisoindolin-2-yl)-3-methylbutanoic acid] the value was 10 to 50%; for `CC(C)[C@@H](C(=O)O)N1Cc2cc(-c3ccc(NC(=O)c4ccc(F)cc4)cc3)ccc2C1=O` [Example 307, (S)-2-(5-(4-(4-Fluorobenzamido)phenyl)-1-oxoisoindolin-2-yl)-3-methylbutanoic acid], 10 to 50%; for `CC(C)[C@@H](C(=O)O)N1Cc2cc(-c3ccc(NC(=O)c4ccc(C(F)(F)F)cc4)cc3)ccc2C1=O` [Example 309, (S)-3-Methyl-2-(1-oxo-5-(4-(4-(trifluoromethyl)benzamido)phenyl)isoindolin-2-yl)butanoic acid], 10 to 50%.
As to `COc1ccc(C(=O)Nc2ccc(-c3ccc4c(c3)CN([C@H](C(=O)O)C(C)C)C4=O)cc2)cc1` [Example 311, (S)-2-(5-(4-(4-Methoxybenzamido)phenyl)-1-oxoisoindolin-2-yl)-3-methyl butanoic acid], the inhibition at 1 µM is 10 to 50%.
The same measure, in the same setting: for `CC(C)[C@@H](C(=O)O)N1Cc2cc(-c3ccc(NC(=O)c4cccc(F)c4)cc3)ccc2C1=O` [Example 313, (S)-2-(5-(4-(3-Fluorobenzamido)phenyl)-1-oxoisoindolin-2-yl)-3-methylbutanoic acid] the value was 10 to 50%.
In the case of `CC(C)[C@@H](C(=O)O)N1Cc2cc(-c3ccc(NC(=O)c4cccc(Cl)c4)cc3)ccc2C1=O` [Example 315, (S)-2-(5-(4-(3-Chlorobenzamido)phenyl)-1-oxoisoindolin-2-yl)-3-methylbutanoic acid], the inhibition at 1 µM fell in the range of 10 to 50%.
The same measure, in the same setting: for `Cc1ccc(C(=O)Nc2ccc(-c3ccc4c(c3)CN([C@H](C(=O)O)C(C)C)C4=O)cc2)cc1` [Example 319, (S)-3-Methyl-2-(5-(4-(4-methylbenzamido)phenyl)-1-oxoisoindolin-2-yl)butanoic acid] the value was 10 to 50%; for `CC(C)[C@@H](C(=O)O)N1Cc2cc(-c3ccc(NC(=O)c4ccc(Cl)cc4)cc3)ccc2C1=O` [Example 321, (S)-2-(5-(4-(4-Chlorobenzamido)phenyl)-1-oxoisoindolin-2-yl)-3-methylbutanoic acid], above 50%.
Turning to `CC(C)[C@@H](C(=O)O)N1Cc2cc(-c3ccc(NC(=O)c4ccc(C(C)(C)C)cc4)cc3)ccc2C1=O` [Example 323, (S)-2-(5-(4-(4-tert-Butylbenzamido)phenyl)-1-oxoisoindolin-2-yl)-3-methyl butanoic acid], the inhibition at 1 µM lay within 10 to 50%.
Still for that read-out and setting: for `CCCCCc1ccc(C(=O)Nc2ccc(-c3ccc4c(c3)CN([C@H](C(=O)O)C(C)C)C4=O)cc2)cc1` [Example 325, (S)-3-Methyl-2-(1-oxo-5-(4-(4-pentylbenzamido)phenyl)isoindolin-2-yl)butanoic acid] the value was 10 to 50%; for `CC(C)[C@H](C(=O)O)N1Cc2ccc(-c3ccc(NC(=O)Nc4cccc(C(F)(F)F)c4)cc3)cc2C1=O` [Example 331, (R)-3-Methyl-2-(1-oxo-6-(4-(3-(3-(trifluoromethyl)phenyl)ureido)phenyl)isoindolin-2-yl)butanoic acid], above 50%; for `O=C(O)CN1Cc2ccc(-c3ccc(NC(=O)Nc4cccc(C(F)(F)F)c4)cc3)cc2C1=O` [Example 334, 2-(1-Oxo-6-(4-(3-(3-(trifluoromethyl)phenyl)ureido)phenyl)isoindolin-2-yl)acetic acid], 10 to 50%.
Still for that read-out and setting: for `C[C@@H](C(=O)O)N1Cc2ccc(-c3ccc(NC(=O)Nc4cccc(C(F)(F)F)c4)cc3)cc2C1=O` [Example 337, (S)-2-(1-Oxo-6-(4-(3-(3-(trifluoromethyl)phenyl)ureido)phenyl)isoindolin-2-yl)propanoic acid] the value was above 50%; for `CC(C)(C(=O)O)N1Cc2ccc(-c3ccc(NC(=O)Nc4cccc(C(F)(F)F)c4)cc3)cc2C1=O` [Example 340, 2-Methyl-2-(1-oxo-6-(4-(3-(3-(trifluoromethyl)phenyl)ureido)phenyl)isoindolin-2-yl)propanoic acid], 10 to 50%; for `O=C(Nc1ccc(-c2ccc3c(c2)C(=O)N(C2(C(=O)O)CCCC2)C3)cc1)Nc1cccc(C(F)(F)F)c1` [Example 343, 1-(1-Oxo-6-(4-(3-(3-(trifluoromethyl)phenyl)ureido)phenyl)isoindolin-2-yl)cyclopentanecarboxylic acid], 10 to 50%.
Same read-out and setting: for `O=C(Nc1ccc(-c2ccc3c(c2)C(=O)N([C@H](C(=O)O)c2ccccc2)C3)cc1)Nc1cccc(C(F)(F)F)c1` [Example 346, (S)-2-(1-Oxo-6-(4-(3-(3-(trifluoromethyl)phenyl)ureido)phenyl)isoindolin-2-yl)-2-phenylacetic acid] the value was 10 to 50%; for `O=C(O)CCCN1Cc2ccc(-c3ccc(NC(=O)Nc4cccc(C(F)(F)F)c4)cc3)cc2C1=O` [Example 349, 4-(1-Oxo-6-(4-(3-(3-(trifluoromethyl)phenyl)ureido)phenyl)isoindolin-2-yl)butanoic acid], 10 to 50%.
